Assay results as given in patent US20170275302A1, “INHIBITORS OF THE RENAL OUTER MEDULLARY POTASSIUM CHANNEL” (Merck Sharp & Dohme Corp., priority 2014, published 2017).

Biological target: T1, hROMK (hKir1.1) (Homo sapiens, UniProt P48048)
T1 construct: expressed in transfected cells
T1 sequence (P48048 1-391): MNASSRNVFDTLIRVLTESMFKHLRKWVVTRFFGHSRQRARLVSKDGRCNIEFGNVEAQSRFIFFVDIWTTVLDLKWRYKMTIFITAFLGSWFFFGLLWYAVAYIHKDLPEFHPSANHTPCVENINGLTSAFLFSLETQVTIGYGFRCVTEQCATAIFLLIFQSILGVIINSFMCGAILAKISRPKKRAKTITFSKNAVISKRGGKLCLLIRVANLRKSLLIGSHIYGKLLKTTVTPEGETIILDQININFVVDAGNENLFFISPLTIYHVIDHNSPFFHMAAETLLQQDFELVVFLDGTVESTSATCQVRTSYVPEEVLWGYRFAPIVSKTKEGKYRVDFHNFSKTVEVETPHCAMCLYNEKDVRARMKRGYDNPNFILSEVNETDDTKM
Assay: Thallium Flux Assay (ROMK channel functional thallium flux assay, FLIPR-Tetra)
Assay type: cell-based
Settings: HEK293 cells stably expressing hROMK (hKir1.1); FluxOR thallium flux, 30 min compound incubation; concentration inhibiting 50% of ROMK thallium flux signal
Description: The following Thallium Flux Assay was performed on each of the final product compounds in the Examples.
HEK293 cells stably expressing hROMK (hKir1.1) were grown at 37° C. in a 10% CO2 humidified incubator in complete growth media: Dulbecco's Modified Eagle Medium supplemented with non-essential amino acids, Penicillin/Streptomycin/Glutamine, G418 and FBS. At >80% confluency, the media was aspirated from the flask and rinsed with 10 mL calcium/magnesium-free phosphate buffered saline (PBS). 5 mL of 1× trypsin (prepared in Ca/Mg Free PBS) was added to T-225 flask and the flask was returned to 37° C./CO2 incubator for 2-3 minutes. To dislodge the cells, the side of the flask was gently banged with one's hand. The cells were completely titrated and then the cells were transferred to 25 mL complete media, centrifuged at 1,500 rpm for 6 min followed by resuspension in complete growth media, and the cell concentration was determined. For typical re-seeding, 4E6 cells/T-225 flask will attain >80% confluency in 4 days. Under ideal growth conditions and appropriate tissue culture practices, this cell line is stable for 40-45 passages.
Compound Buffer (per microplate): 20 mL Probenecid/Assay Buffer; 0.3 mM ouabain (10 mM ouabain in water can be stored in amber bottle/aluminum foil at room temperature); Test compound
Stimulant Buffer (prepared at 5× final concentration in 1× FluxOR™Chloride-Free Buffer): 7.5 mM thallium sulfate and 0.75 mM potassium sulfate (to give a final assay concentration of 3 mM Thallium/0.3 mM potassium). Store at 4° C. when not in use. If kept sterile, this solution is good for months.
The ROMK channel functional thallium flux assay was performed in 384 wells, using the FLIPR-Tetra instrument. HEK-hKir1.1 cells were seeded in Poly-D-Lysine microplates and kept in a 37° C.-10% CO2 incubator overnight. On the day of the experiment, the growth media was replaced with the FluxOR™ reagent loading buffer and incubated, protected from light, at ambient temperature (23-25° C.) for 90 min. The loading buffer was replaced with assay buffer±test compound followed by 30 min incubation at ambient temperature, where the thallium/potassium stimulant was added to the microplate.
• 1. Seed HEK-hKir1.1 cells (50 μl at 20,000 cells/well) in 384-well PDL coated Microplates • 2. Allow cells to adhere overnight in humidified 37° C./10% CO2 incubator • 3. Completely remove cell growth media from microplate and replace with 25 μl loading buffer • 4. Incubate Microplate at room temperature, protected form light, for 90 min • 5. Remove loading buffer and replace with 25 μl 1× Assay Buffer±test compound. • 6. Incubate microplate at room temperature, protected from light, for 30 min • 7. At FLIPR-Tetra 384: Add stimulant (thallium/potassium) solution to microplate and monitor fluorescence. Excitation=400 nm, Emission=460 & 580 nm. Collect data for ˜10 min.
The fluorescence intensity of wells containing 3 μM of a standard control ROMK inhibitor of the present invention was used to define the ROMK-sensitive component of thallium flux. Fluorescence in the presence of test compounds was normalized to control values to provide % fluorescence change. IC50 values represent the concentration of compound that inhibited 50% of the ROMK thallium flux signal.

| Compound | IC50 |
| --- | --- |
| OC(CN1CCC2(CC1)CCN(c1ccc3nncn3n1)C2)c1ccc(-n2cnnn2)nc1 (racemic) [Example 52] | 84 nM |
| Cc1c(C(O)CN2CCC3(CC2)CCN(c2ccc4nncn4n2)C3)ccc(C#N)c1F (racemic) [Example 53] | 18.7 nM |
| Cc1c(F)c(C#N)cc(F)c1C(O)CN1CCC2(CC1)CCN(c1ccc3nncn3n1)C2 (racemic) [Example 54, 4-(2-(2-([1,2,4]triazolo[4,3-b]pyridazin-6-yl)-2,8-diazaspiro[4.5]decan-8-yl)-1-hydroxyethyl)-2,5-difluoro-3-methylbenzonitrile] | 35.9 nM |
| Cc1cc(C#N)c(F)cc1C(O)CN1CCC2(CC1)CCN(c1ccc3nncn3n1)C2 (racemic) [Example 55] | 26 nM |
| OC(CN1CCC2(CCN(c3ccc4nncn4n3)CC2)C1)c1ccc(-n2cnnn2)nc1 (racemic) [Example 69] | 72.6 nM |
| Cc1c([C@@H](O)CN2CCC3(CC2)CCN(c2nccn4nccc24)C3)ccc2c1COC2=O [Example 1, (R)-5-(1-hydroxy-2-(2-(pyrazolo[1,5-α]pyrazin-4-yl)-2,8-diazaspiro[4.5]decan-8-yl)ethyl)-4-methylisobenzofuran-1(3H)-one] | 745 nM |
| Cc1c([C@@H](O)CN2CCC3(CC2)CCN(c2nc4cc(C#N)ccc4[nH]2)C3)ccc2c1COC2=O [Example 2] | 132 nM |
| Cc1c([C@@H](O)CN2CCC3(CC2)CCN(c2nccn4cnnc24)C3)ccc2c1COC2=O [Example 3] | 235 nM |
| Cc1c([C@@H](O)CN2CCC3(CC2)CCN(c2nc4cc(F)ccc4o2)C3)ccc2c1COC2=O [Example 4] | 779 nM |
| Cc1c([C@@H](O)CN2CCC3(CC2)CCN(c2ccc4nncn4n2)C3)ccc2c1COC2=O [Example 5, (R)-5-(2-(2-([1,2,4]triazolo[4,3-b]pyridazin-6-yl)-2,8-diazaspiro[4.5]decan-8-yl)-1-hydroxyethyl)-4-methylisobenzofuran-1 (3H)-one] | 74.7 nM |
| Cc1c([C@@H](O)CN2CCC3(CC2)CCN(c2nc4c(S(N)(=O)=O)cccc4s2)C3)ccc2c1COC2=O [Example 6] | 304 nM |
| Cc1c([C@@H](O)CN2CCC3(CC2)CCN(C2=Nc4ccccc4C4=NCCN42)C3)ccc2c1COC2=O [Example 7] | 620 nM |
| Cc1c([C@@H](O)CN2CCC3(CC2)CCN(c2ccn4nccc4n2)C3)ccc2c1COC2=O [Example 8] | 246 nM |
| Cc1c([C@@H](O)CN2CCC3(CC2)CCN(c2nn4cnnc4c4ccccc24)C3)ccc2c1COC2=O [Example 9] | 261 nM |
| Cc1c([C@@H](O)CN2CCC3(CC2)CCN(c2ccc4nnnn4n2)C3)ccc2c1COC2=O [Example 10, (R)-5-(1-hydroxy-2-(2-(tetrazolo[1,5-b]pyridazin-6-yl)-2,8-diazaspiro[4.5]decan-8-yl)ethyl)-4-methylisobenzofuran-1(3H)-one] | 12.8 nM |
| CSCc1nnc2ccc(N3CCC4(CCN(C[C@H](O)c5ccc6c(c5C)COC6=O)CC4)C3)nn12 [Example 11] | 47.7 nM |
| Cc1c([C@@H](O)CN2CCC3(CC2)CCN(c2ccc4nnc(-c5ccco5)n4n2)C3)ccc2c1COC2=O [Example 13] | 411 nM |
| Cc1c([C@@H](O)CN2CCC3(CC2)CCN(c2ccc4nnc(C5CC5)n4n2)C3)ccc2c1COC2=O [Example 14] | 204 nM |
| Cc1c([C@@H](O)CN2CCC3(CC2)CCN(c2ccc4nnc(C(F)(F)F)n4n2)C3)ccc2c1COC2=O [Example 15] | 287 nM |

| Compound | IC50 |
| --- | --- |
| CCc1nnc2ccc(N3CCC4(CCN(C[C@H](O)c5ccc6c(c5C)COC6=O)CC4)C3)nn12 [Example 16] | 97.8 nM |
| Cc1c([C@@H](O)CN2CCC3(CC2)CCN(c2ncc4c(C)n[nH]c4n2)C3)ccc2c1COC2=O [Example 17] | 486 nM |
| Cc1c([C@@H](O)CN2CCC3(CCCN(c4nccn5cnnc45)C3)C2)ccc2c1COC2=O (some centres unmarked) [Example 18] | 339 nM |
| Cc1c([C@@H](O)CN2CCC3(CC2)CCN(c2ccc4nnc(C)n4n2)C3)ccc2c1COC2=O [Example 19] | 74.7 nM |
| COc1cc([C@@H](F)CN2CCC3(CC2)CCN(c2ccc4nncn4n2)C3)ncc1C#N [Example 21] | 236 nM |
| COc1cc([C@H](CN2CCC3(CC2)CCN(c2ccc4nncn4n2)C3)OC(=O)C2CC2)ncc1C#N [Example 22] | 212 nM |
| COc1cc([C@H](CN2CCC3(CC2)CCN(c2ccc4nncn4n2)C3)OC(C)=O)ncc1C#N [Example 23, (S)-2-(2-([1,2,4]triazolo[4,3-β]pyridazin-6-yl)-2,8-diazaspiro[4.5]decan-8-yl)-1-(5-cyano-4-methoxypyridin-2-yl)ethyl acetate] | 108 nM |
| Cc1c([C@@H](O)CN2CCC3(CC2)CCN(c2cnc4nncn4c2)C3)ccc2c1COC2=O [Example 24, (R)-5-(2-(2-([1,2,4]triazolo[4,3-a]pyrimidin-6-yl)-2,8-diazaspiro[4.5]decan-8-yl)-1-hydroxyethyl)-4-methylisobenzofuran-1(3H)-one] | 850 nM |
| Cc1c([C@@H](O)CN2CCC3(CC2)CCN(c2ccc4nsnc4c2)C3)ccc2c1COC2=O [Example 25, (R)-5-(2-(2-(benzo[c][1,2,5]thiadiazol-5-yl)-2,8-diazaspiro[4.5]decan-8-yl)-1-hydroxyethyl)-4-methylisobenzofuran-1 (3H)-one] | 342 nM |
| COC1OC(=O)c2ccc(N3CCC4(CCN(C[C@H](O)c5ccc6c(c5C)COC6=O)CC4)C3)cc21 (stereo partly drawn) [Example 26, 5-((1R)-1-hydroxy-2-(2-(3-methoxy-1-oxo-1,3-dihydroisobenzofuran-5-yl)-2,8-diazaspiro[4.5]decan-8-yl)ethyl)-4-methylisobenzofuran-1(3H)-one] | 199 nM |
| Cc1c([C@@H](O)CN2CCC3(CC2)CCN(c2snc4ncccc24)C3)ccc2c1COC2=O [Example 27, (R)-5-(1-hydroxy-2-(2-(isothiazolo[3,4-b]pyridin-3-yl)-2,8-diazaspiro[4.5]decan-8-yl)ethyl)-4-methylisobenzofuran-1(3H)-one] | 317 nM |
| Cc1c([C@@H](O)CN2CCC3(CC2)CCN(c2cc4cncnc4s2)C3)ccc2c1COC2=O [Example 28, (R)-5-(1-Hydroxy-2-(2-(thieno[2,3-d]pyrimidin-6-yl)-2,8-diazaspiro[4.5]decan-8-yl)ethyl)-4-methylisobenzofuran-1 (3H)-one] | 261 nM |
| Cc1c([C@@H](O)CN2CCC3(CC2)CCN(c2cnc4snnc4c2)C3)ccc2c1COC2=O [Example 29, (R)-5-(2-(2-([1,2,3]thiadiazolo[5,4-b]pyridin-6-yl)-2,8-diazaspiro[4.5]decan-8-yl)-1-hydroxyethyl)-4-methylisobenzofuran-1(3H)-one] | 301 nM |
| Cc1c([C@@H](O)CN2CCC3(CC2)CCN(c2cnc4snnc4c2)C3=O)ccc2c1COC2=O [Example 30] | 83.2 nM |
| Cc1c([C@@H](O)CN2CCC3(CC2)CCN(c2ccc4nsnc4c2)C3=O)ccc2c1COC2=O [Example 31] | 267 nM |
| Cc1c([C@@H](O)CN2CCC3(CC2)CCN(c2cc4ccncc4s2)C3=O)ccc2c1COC2=O [Example 32] | 48.8 nM |
| COc1cc2ccc(N3CCC4(CCN(C[C@H](O)c5ccc6c(c5C)COC6=O)CC4)C3=O)nc2cn1 [Example 33] | 284 nM |
| Cc1c([C@@H](O)CN2CCC3(CC2)CCN(c2ccc4sccc4n2)C3=O)ccc2c1COC2=O [Example 34] | 427 nM |
| Cc1c([C@@H](O)CN2CCC3(CC2)CCN(c2ccc4ncnn4c2)C3=O)ccc2c1COC2=O [Example 35] | 537 nM |
